Columns and labels:
NAMPT = biological target: T1, NAMPT (Homo sapiens, UniProt P43490); experiment: CycLex NAMPT Colorimetric Assay, NAMPT enzymatic activity; type: biochemical; conditions: three doses 0.1, 1, 10 uM
T1 construct: purchased MBL International (Woburn, Mass.)
Protocol: CycLex NAMPT Colorimetric Assay Kit was purchased from MBL International (Woburn, Mass.) and utilized to screen the effect of putative NAMPT inhibitors on NAMPT enzymatic activity. Three doses (0.1, 1, 10 uM) of each NAMPT inhibitors was used following the manufacturer's instruction.

MCT-induced PH in rats = experiment: MCT-PH model, FK-866 analogs as preventive therapy; type: in vivo; conditions: for hypertrophy-ratio of RV and LV plus septal-S weight (RVH-RV) / right ventricular systolic pressure (RVSP): preliminary studies in MCT-PH
Protocol: FIG. 10A is a bar graph showing normalized NAMPT activity in the present of FK866 and FK analogues MS-1-82, Rari049, Alp-135 at 0.1, 1, and 10 μM concentrations. FIG. 10B is a bar graph showing RVSP in MCT-induced PH in rats and in MCT-induced PH in rats with Rari049 (2.5 mg/kg, i.p. BID, ×2 wks) (RVSP-right ventricular systolic pressure, RVH-RV hypertrophy-ratio of RV and LV plus septal-S weight).

[1] = test system: Human pulmonary artery endothelial cells (EC); experiment: TNF-α-induced apoptosis / PARP-1 cleavage in human lung endothelial cells; type: cell-based
Protocol: Human pulmonary artery endothelial cells (EC) were obtained from Lonza (Walkersville Md.) and were cultured in the manufacturer's recommended endothelial growth medium-2 (EGM-2). Cells were grown at 37° C. in a 5% CO2 incubator, and passages 6 to 9 were used for experiments. Media was changed one day before experimentation. For RNA interference, siRNAs were transfected into EC at a final concentration of 100 nM for 72 hrs. Protein quantification and Western blot analysis were performed according to standard procedures.
(B) ECs were pre-treated (6 hrs) with either vehicle (DMSO) or with a caspase-3 inhibitor (z-DEVD-fmk, 20 μM) prior to 24 hr challenge with TNF-α (30 ng/ml), FasL (100 ng/ml) or tBHP (5 mM). […] (C) ECs were transfected with myc-tagged NAMPT plasmid resulting in marked NAMPT overexpression. […] Error bars indicate SEM of three independent experiments.

hPASMCs = experiment: TUNEL apoptosis assay in hPASMCs; type: cell-based, human; conditions: FK866 10 μM, 24 hrs
Protocol: hPASMCs were cultured on a coverslip in a 6-well cell culture plate. H2O2 (100 μM, Sigma, Cat. #ab66110) was used as an apoptosis stimulus for hPASMCs.
When cell confluence reached 95%, cells were starved for 3 hrs and stimulated by H2O2, FK866 (10 μM), H2O2+rhNAMPT (20 μg/ml) or H2O2+rhNAMPT (20 μg/ml) with FK866 (10 μM) for 24 hrs. Cell apoptosis was examined using an in situ BrdU-Red DNA fragmentation (TUNEL) kit. The cells on the coverslips were examined using a Nikon Eclipse E800 fluorescence microscope, and the images were processed by MetaMorph software (Molecular Devices, Inc.). Approximately ten images were taken from each condition, and over 500 cells were counted according to DAPI staining.

[2] = MCT-PH, 2.5 mg/kg, i.p. BID, ×2 wks

T1 sequence (P43490 whole entry): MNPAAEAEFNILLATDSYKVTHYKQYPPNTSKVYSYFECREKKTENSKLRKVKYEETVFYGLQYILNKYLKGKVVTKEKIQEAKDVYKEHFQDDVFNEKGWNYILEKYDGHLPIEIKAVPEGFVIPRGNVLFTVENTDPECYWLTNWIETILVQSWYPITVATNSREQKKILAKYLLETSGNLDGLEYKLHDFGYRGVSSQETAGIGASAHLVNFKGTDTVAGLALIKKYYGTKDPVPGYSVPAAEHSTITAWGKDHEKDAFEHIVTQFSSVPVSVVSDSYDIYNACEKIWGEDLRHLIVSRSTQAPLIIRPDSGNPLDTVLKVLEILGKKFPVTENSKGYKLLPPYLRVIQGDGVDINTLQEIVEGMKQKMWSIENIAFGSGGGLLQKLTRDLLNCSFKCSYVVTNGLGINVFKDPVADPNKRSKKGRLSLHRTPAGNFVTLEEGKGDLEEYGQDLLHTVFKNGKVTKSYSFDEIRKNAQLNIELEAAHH

Row | Compound | NAMPT enzyme inhibitory properties (NAMPT) | hypertrophy-ratio of RV and LV plus septal-S weight (RVH-RV) (MCT-induced PH in rats) | right ventricular systolic pressure (RVSP) (MCT-induced PH in rats) | other results
1 | O=C(/C=C/c1cccnc1)NCCCCCCn1c2ccccc2c2ccccc21 [Alp135] | excellent dose-dependent enzyme inhibitory properties | reducing | reducing | 
2 | O=C(/C=C/c1cccnc1)NCCCCC1CCN(C(=O)c2ccccc2)CC1 [FK866, (E)-N-[4-(1-Benzoylpiperidin-4-yl)butyl]-3-pyridin-3-ylprop-2-enamide, reference compound] |  |  |  | TNFα-induced EC apoptosis ([1]; human lung EC): failed to alter; hPASMC apoptosis (TUNEL positive cells) (hPASMCs): promotes
3 | O=C(/C=C/c1cccnc1)NCCCCCCNC(=O)c1cccnc1 [MS-1-82] | excellent dose-dependent enzyme inhibitory properties |  |  | 
4 | O=C(/C=C/c1cccnc1)NCCCCCCn1c(-c2ccccc2)cc2ccccc21 [Rari049] | excellent dose-dependent enzyme inhibitory properties | reducing | reducing | RVH (MCT-induced PH in rats; [2]): reducing; RVSP (MCT-induced PH in rats; [2]): reducing
5 | z-DEVD-fmk |  |  |  | PARP-1 cleavage induced by TNF-α ([1]; pre-incubated 6 hrs, 20 μM, TNF-α 30 ng/ml 24 hrs, vs vehicle (DMSO)): significantly reduced

From patent US10975167B2, “Method to reduce pulmonary arterial hypertension by administering inhibitors of nicotinamide phosphoribotransferase” (Arizona Board of Regents on Behalf of the University of …, priority 2017, dated 2021)
